T1: Renilla luciferase (Renilla reniformis, UniProt P27652)
T1 sequence (P27652 1-311): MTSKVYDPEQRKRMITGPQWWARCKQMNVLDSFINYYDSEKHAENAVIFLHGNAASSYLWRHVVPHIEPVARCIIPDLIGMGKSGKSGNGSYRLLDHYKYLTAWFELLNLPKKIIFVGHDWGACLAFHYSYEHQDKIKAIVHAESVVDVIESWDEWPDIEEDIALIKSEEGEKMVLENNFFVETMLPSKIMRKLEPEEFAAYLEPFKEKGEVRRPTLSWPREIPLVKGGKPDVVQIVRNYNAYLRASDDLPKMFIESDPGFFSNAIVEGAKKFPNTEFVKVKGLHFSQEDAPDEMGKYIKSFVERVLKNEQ

B1: Renilla luciferase (Renilla reniformis) (protein)
chain: T1 sequence (P27652 1-311)

Tests used:
Type in all cases: biochemical
NANOLUC® Luciferase [1] = target: T2, NANOLUC® Luciferase (Oplophorus gracilirostris, UniProt Q9GV45, A31E/A60N/A81I/F95D/I117V/K70R/L54V/L99Q/M102K/N193R/P142E/Q151K/Q38R/Q45L/V71I/Y165I); experiment: Enzyme titration with NanoLuc luciferase (Example 9B); conditions: substrate 100 uM; FIG. 2B
T2 sequence (Q9GV45 28-196 with tags or gaps with the stated changes limits assumed): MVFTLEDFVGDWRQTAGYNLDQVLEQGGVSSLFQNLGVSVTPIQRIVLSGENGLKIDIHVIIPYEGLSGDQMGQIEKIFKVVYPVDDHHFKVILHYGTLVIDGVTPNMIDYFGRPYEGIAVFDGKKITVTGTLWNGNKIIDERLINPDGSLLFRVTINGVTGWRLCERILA
Description: (§1) Renilla luciferase and NanoLuc Lucifersase were diluted to a concentration of 4 ug/ml (4 ng/uL) in OptiMEM+0.1% FBS. 10× serial dilutions of the luciferases were then prepared in OptiMEM+0.1% FBS. Each substrate was diluted to 100 uM into Renilla Glo Luciferase assay buffer (Promega Corporation). The 10× enzyme serial dilutions were then combined with the substrate dilutions, 50 ul mixed with 50 ul compound, and incubated for 1 minute at room temperature. Light output for each compound was measured on a GLOMAX®-Multi+ luminometer.

Renilla luciferase = target: T1, Renilla luciferase; experiment: Enzyme titration with Renilla luciferase (Example 9B); conditions: FIG. 2B
Description: as §1

NANOLUC® Luciferase [2] = target: T2, NANOLUC® Luciferase; experiment: Spectral measurements in various buffers with NANOLUC luciferase (Example 10); conditions: for High / Low / Peak / Width: emission spectrum
Description: Each compound to be screened was diluted to a concentration of 100 uM (50 uM final concentration) in Renilla Glo Luciferase Assay buffer (Promega Corporation), NANO-GLO Luciferase Assay Buffer (Promega Corporation), or 20 uM (10 uM final) in OptiMEM+0.1% FBS. NANOLUC® luciferase and Renilla luciferase were serially diluted to 4, 40, and 400 ng/ml in OptiMEM+0.1% FBS. 50 ul of each compound dilution was mixed with 50 ul enzyme dilution and incubated for 1 minute at room temperature. Autoluminescence spectra of AS-353 was measured by adding 20 uM of substrate to OptiMEM+20% FBS and then 50 ul of this dilution was combined with 50 ul of OptiMEM+0.1% FBS. Spectral measurements were measured using a Tecan M-1000 luminometer. ([…]).

[3] = substrate: O=c1c(Cc2ccco2)nc2c(Cc3ccccc3)[nH]c(-c3ccccc3)cn1-2; experiment: Km and Vmax substrate titration with Renilla luciferase (Example 8); conditions: other: Renilla luciferase 4 ng/ml; Renilla Glo buffer; Michaelis-Menten fit
Description: Each compound to be screened was diluted to a concentration of 100 uM in Renilla Glo Luciferase Assay buffer (Promega Corporation) and then further diluted to 2×serial dilution in Renilla Glo Luciferase Assay Buffer. NANOLUC® luciferase and Renilla luciferase were diluted to a concentration of 4 ng/ml in OptiMEM+0.1% FBS. 50 ul of each compound dilution was then mixed with 50 ul of each enzyme dilution and incubated for 1 minute at room temperature. Light output for each compound was measured on a GLOMAX®-Multi+ luminometer. Km and Vmax were calculated for each enzyme/substrate combination using a GraphPad Prism Michaelis-Menten non-linear fit (FIGS. 1A-ID).

| Molecule | lower RLU values with NanoLuc compared to AS-360 (NANOLUC® Luciferase [1]) [×] | enzyme dependent luminescence with Renilla Luciferase (Renilla luciferase) | shift of the NanoLuc luciferase spectral properties (NANOLUC® Luciferase [2]; FIGS. 3A-3C and 4A-4D) | NanoGlo (spectral peak, Table 4) (NANOLUC® Luciferase [2]; NanoLuc, NanoGlo buffer) | OptiMEM (spectral peak, Table 4) (NANOLUC® Luciferase [2]; NanoLuc, OptiMEM) | High (NANOLUC® Luciferase [2]; NanoLuc, NanoGlo Buffer) | Low (NANOLUC® Luciferase [2]; NanoLuc, NanoGlo Buffer) | Peak (NANOLUC® Luciferase [2]; NanoLuc, NanoGlo Buffer) | Width (NANOLUC® Luciferase [2]; NanoLuc, NanoGlo Buffer) | High (NANOLUC® Luciferase [2]; NanoLuc, OptiMEM + 0.1% FBS) | Low (NANOLUC® Luciferase [2]; NanoLuc, OptiMEM + 0.1% FBS) | Peak (NANOLUC® Luciferase [2]; NanoLuc, OptiMEM + 0.1% FBS) | Width (NANOLUC® Luciferase [2]; NanoLuc, OptiMEM + 0.1% FBS) | Km [3] [µM] |
| --- | --- | --- | --- | --- | --- | --- | --- | --- | --- | --- | --- | --- | --- | --- |
| N#Cc1ccc(-c2[nH]c(-c3ccc(O)cc3)cn3c(=O)c(Cc4ccco4)nc2-3)s1 [AS-353, 5-(2-(furan-2-ylmethyl)-6-(4-hydroxyphenyl)-3-oxo-3,7-dihydroimidazo[1,2-a]pyrazin-8-yl)thiophene-2-carbonitrile] | ~100 | only at the highest enzyme concentration | shifted the NanoLuc® luciferase spectral properties to red | 592 | 583 | 652 | 550 | 592 | 102 | 637 | 544 | 583 | 93 |  |
| B1 |  |  |  |  |  |  |  |  |  |  |  |  |  | 10.6 |
